The values that follow come from publication PMC5841303, “In silico screening for human norovirus antivirals reveals a novel non-nucleoside inhibitor of the viral polymerase” (Scientific Reports, 2018).

For data set [1], the system named is norovirus RdRp. Kind of data set: Counter-screen gel-shift RdRp assay (primed elongation of PE44-NoV template). The class given is biochemical, human norovirus. Particulars: 10 µM.
Another data set concerns human norovirus RdRp. The following applies: cited from earlier work.
The test system of another data set is human norovirus replicon. More on the design: method as in PMID 26392512. The following applies: cell culture; read-out: EC50 against the human norovirus replicon; cited from earlier work.
A further data set relates to human norovirus. More on the design: method as in PMID 27210811. The following applies: read-out: EC50 against human norovirus in the B-cell culture system; cited from earlier work.
In data set [2] the target is human norovirus Sydney 2012 RdRp (Norovirus GII.4 (Norwalk virus, human norovirus), UniProt K4L8Z7). Kind of data set: Fluorescent de novo RdRp activity assay (PicoGreen, poly(C) template). Type of data set: biochemical. On the procedure: The 62 compounds identified in silico were screened for inhibition of norovirus RdRp activity using an in vitro fluorescent, de novo RdRp assay. Compounds were tested at fixed concentrations of 10 µM and 100 µM, and compared to mock treated samples containing the vehicle only (0.5% DMSO [vol/vol]) (Fig. 4A,B). […] For certain compounds, significant insolubility was observed, coupled with either inherent fluorescence quenching (positive y-axis values on Fig. 4A,B) or enhancement of the fluorescence signal (negative y-axis values).
The newly synthesised compounds, including the re-prepared hit 13 and some synthesis intermediates (Table 1), were initially evaluated on norovirus Sydney 2012 RdRp activity in vitro using a quantitative fluorescent assay. Compounds were tested at a fixed concentration of 10 μM and compared to the relative activity of mock treated samples.
Recombinant calicivirus RdRps (GenBank accession numbers) norovirus GII.Pe/GII.4 Sydney 2012 (KT239579), MNV GV CW1 (DQ285629), RHDV Czech V351 (KF594473.1), and SaV GI.1 Mc114 (AY237422) were expressed and purified as described previously[60],[61]. RdRp resistance mutants were generated using the QuikChange site-directed mutagenesis kit (Agilent Technologies, Santa Clara, CA, USA) and confirmed by Sanger sequencing.
(§1) Fluorescent RdRp activity assays were carried out as previously described[14],[62]. Briefly, RdRp activity was quantified by monitoring the formation of double-stranded RNA (dsRNA) from a single stranded homopolymeric template, poly(C) (Sigma Aldrich, St Louis, MO, USA), using the fluorescent dye PicoGreen (Life Technologies, Carlsbad, CA, USA). RdRp assays were performed in 384-well plates, and each reaction mixture contained 400 ng enzyme, 45 µM GTP, 10 ng/µL poly(C) RNA, 2.5 mM MnCl2, 5 mM dithiothreitol, (DTT), 0.01% bovine serum albumin (BSA), and 0.005% Tween 20 in 20 mM Tris-HCl, pH 7.5, with a final reaction volume of 25 µL. The previous published norovirus NNI NIC02 was used as a positive control. RdRps were incubated for 10 mins at 30 °C in the presence of the test compounds or the compound vehicle DMSO (0.5% vol/vol) before addition into the reaction mixture, which was then allowed to run 15 min at 30 °C then terminated with 10 mM EDTA, followed by PicoGreen staining and dsRNA quantitation. GraphPad Prism V6.05 (La Jolla, CA, USA) was used to plot the IC50 values. In cases where fluorescent enhancement was recorded for a compound instead of inhibition, a secondary gel-based polymerase activity assay was used as a counter-screen as described below, to exclude the possibility of RdRp activity enhancement (Supplementary Fig. S1). Primed elongation activity was examined in a gel-based assay as previously described[16],[63] using the RNA template (PE44-NoV, Fig. 4D). Gels were imaged using BioRad (Hercules, CA, U.SA) Geldoc Universal Hood II, running BioRad Image Lab software, V4.1, build 16. Antagonism was calculated using Compusyn software V1.0[59]. 54 and PPNDS (4:1 ratio) were tested alone and together against norovirus Sydney 2012 RdRp.

Data set [3] deals with norovirus RdRp. Kind of data set: Counter-screen gel-shift RdRp assay (primed elongation of PE44-NoV template). Type of data set: biochemical, human norovirus. The following applies: fixed concentration of 100 µM. On the procedure:
In this assay, a 32 nucleotide RNA template (PE44-NoV) is extended to 44 nucleotides in the presence of an active RdRp[16]. […] Inhibition of primed elongation of the PE44-NoV template was examined at a fixed concentration of 100 µM (Fig. 4D). In the absence of inhibition (0.5% DMSO vehicle only) the RNA template was extended to 44 nucleotides (Fig. 4D), evidenced by an upward gel shift and the appearance of the second, higher band.
as §1
On the technique in general: Counterscreens check selectivity or assay interference.

The target in a further data set is T1, MNV RdRp (Norovirus, UniProt Q80J95).
T1 construct: made in house
Kind of data set: Fluorescent RdRp activity assay, MNV RdRp. Particulars: fixed concentration of 100 µM. Type of data set: biochemical, murine norovirus. From the text:
The antiviral activity of the four compounds (11, 13, 42a and 54) were examined for inhibition of RNA polymerases from other viruses spanning three genera of the Caliciviridae family, including Norovirus (human norovirus and MNV), Lagovirus (rabbit haemorrhagic disease virus [RHDV]) and Sapovirus (human sapovirus). […] The protein sequence of the examined calicivirus polymerases has an identity range between 30.2–61.4%, and therefore the broad-spectrum activity of these compounds could be attributed to a common, highly-conserved binding pocket across the RdRps, as has been previously reported with broad-spectrum activity of other site-B binding NNIs[16]. Moreover, the ability of each compound to inhibit the different RdRps in a similar range could be further confirmation of targeting a well-conserved binding site of the Caliciviridae family.
Recombinant calicivirus RdRps (GenBank accession numbers) norovirus GII.Pe/GII.4 Sydney 2012 (KT239579), MNV GV CW1 (DQ285629), RHDV Czech V351 (KF594473.1), and SaV GI.1 Mc114 (AY237422) were expressed and purified as described previously[60],[61]. […]
Fluorescent RdRp activity assays were carried out as previously described[14],[62]. Briefly, RdRp activity was quantified by monitoring the formation of double-stranded RNA (dsRNA) from a single stranded homopolymeric template, poly(C) (Sigma Aldrich, St Louis, MO, USA), using the fluorescent dye PicoGreen (Life Technologies, Carlsbad, CA, USA). […] RdRps were incubated for 10 mins at 30 °C in the presence of the test compounds or the compound vehicle DMSO (0.5% vol/vol) before addition into the reaction mixture, which was then allowed to run 15 min at 30 °C then terminated with 10 mM EDTA, followed by PicoGreen staining and dsRNA quantitation. […] In cases where fluorescent enhancement was recorded for a compound instead of inhibition, a secondary gel-based polymerase activity assay was used as a counter-screen as described below, to exclude the possibility of RdRp activity enhancement (Supplementary Fig. S1). […] Antagonism was calculated using Compusyn software V1.0[59]. […]

On the set-up of data set [4]: method as in PMID 24316032, PMID 24616282. The following applies: cited from earlier work.

Counter-ions that a name gives are not always drawn. Like-named read-outs stand apart in the source and are kept apart here. Where only a bound is given, the exact number is not on record here.

On to `Nc1nc2c(ncn2[C@@H]2O[C@H](COP(=O)(O)OP(=O)(O)OP(=O)(O)O)C[C@H]2O)c(=O)[nH]1` [3′dGTP, 3′-deoxyguanosine-5′-triphosphate], for which the “inhibition of transcription (gel-shift, positive control)” value in the data set on norovirus RdRp [1] is “complete inhibition”.
Take `C[C@@]1(O)[C@H](O)[C@@H](CO)O[C@H]1n1ccc(N)nc1=O` [Compound 2CMC, 2′-C-methylcytidine]: the half-maximal inhibitory concentration (IC50) – broadly, the concentration that inhibits the measured activity by half – in the data set on human norovirus RdRp (read-out: IC50 against human norovirus RdRp) was 2500 nM. Further, the EC50 (commonly the concentration that produces a half-maximal response) is 8200 nM in the data set with human norovirus replicon and 300 nM in the data set on human norovirus.
As for `O=C(CN1C(=O)S/C(=C\c2ccc(-c3ccccc3)o2)C1=O)Nc1ccccc1` [Compound 42a], the IC50 in data set [2] was 27400 nM. Also, the “inhibition of primed elongation activity (gel-shift)” value with norovirus RdRp [3] was “near complete abolishment of norovirus RdRp activity”. Further, the inhibition (as a rule, the change of the read-out against control, counted positive when it falls) at 100 µM on MNV RdRp was found to be 44.4%. Further, the “inhibition of MNV RdRp activity” value at MNV RdRp (100 µM) is given as less than 50%.
In the case of `CC1=N/C(=N/Nc2cc(S(=O)(=O)O)c3cc([N+](=O)[O-])cc(S(=O)(=O)O)c3c2)C(COP(=O)(O)O)=C(C=O)C1=O` [PPNDS, pyridoxal-5′-phosphate-6-(2′-naphthylazo-6′-nitro-4′,8′-disulfonate) tetrasodium salt], the concentration for half-maximal inhibition (IC50) in the data set with human norovirus RdRp (in vitro, read-out: IC50 against human norovirus RdRp activity) is 450 nM. Besides, the cell membrane permeability result in data set [4] is listed as “poor cell membrane permeability”.
As to `Cc1ccc(C(=O)Nc2ccc(S(=O)(=O)O)c3cc(S(=O)(=O)O)cc(S(=O)(=O)O)c23)cc1NC(=O)c1cccc(NC(=O)Nc2cccc(C(=O)Nc3cc(C(=O)Nc4ccc(S(=O)(=O)O)c5cc(S(=O)(=O)O)cc(S(=O)(=O)O)c45)ccc3C)c2)c1` [suramin], the IC50 in the data set on human norovirus RdRp (enzymatic assays, read-out: IC50 against human norovirus RdRp) is 27 nM. Also, in data set [4], the cell membrane permeability result is recorded as “poor cell membrane permeability”.
